Values of other authors, collected in patent US20210386729A1, “METHODS FOR TREATING LIVER DISORDERS USING FXR AGONISTS” (NOVARTIS AG, priority 2016, published 2021).

Conditions: clinical studies, PBC or NASH subjects; cited from earlier work

CC[C@H]1[C@@H](O)[C@@H]2[C@H](CC[C@]3(C)[C@@H]([C@H](C)CCC(=O)O)CC[C@@H]23)[C@@]2(C)CC[C@@H](O)C[C@@H]12 [OCA, 6α-ethyl-chenodeoxycholic acid]
pruritus: may be associated with increased pruritus
